Starred links: 1 amine or outer side, 2 acyl side, 3 side chain; linkers in the order of their positions; H or OH if unused. Positions of bridges follow the written chain, without caps; N, C: chain ends. Non-standard residues stand in square brackets, D forms with d. Residues, ends and D or L forms follow the SMILES beside them. *: point of attachment. hPhe(3-Cl-4-CF3) = N[C@@H](CCc1ccc(C(F)(F)F)c(Cl)c1)C(=O)O; X2 = CN([C@@H](CC(=O)[*:2])C(=O)n1cccc1)[*:1]; NMePhe(4-Cl) = CN[C@@H](Cc1ccc(Cl)cc1)C(=O)O; X1 = O=C([C@H](CC(=O)[*:2])N[*:1])n1cccc1; NMeAla(cPent) = CN[C@@H](CC1CCCC1)C(=O)O; Phe(3-Cl) = N[C@@H](Cc1cccc(Cl)c1)C(=O)O; NMeGly(cPent) = CN[C@H](C(=O)O)C1CCCC1; NMeAla(cPr) = CN[C@@H](CC1CC1)C(=O)O; NMeGly(cBu) = CN[C@H](C(=O)O)C1CCC1; NMeCha = CN[C@@H](CC1CCCCC1)C(=O)O; NMeGly(cPr) = CN[C@H](C(=O)O)C1CC1; NMeCba = CN[C@@H](CC1CCC1)C(=O)O; NMeChg = CN[C@H](C(=O)O)C1CCCCC1; NMeF = CN[C@@H](Cc1ccccc1)C(=O)O; NMeI = CC[C@H](C)[C@H](NC)C(=O)O; NMeD = CN[C@@H](CC(=O)O)C(=O)O; NMeL = CN[C@@H](CC(C)C)C(=O)O; NMeNle = CCCC[C@H](NC)C(=O)O; NMeNva = CCC[C@H](NC)C(=O)O; NMeV = CN[C@H](C(=O)O)C(C)C; NMeA = CN[C@@H](C)C(=O)O; Piperidide = C1CCN(*)CC1; Pyrrolidide = C1CCN(*)C1; Ac5c = NC1(C(=O)O)CCCC1; Aze = O=C(O)[C@@H]1CCN1; Sar = CNCC(=O)O
Legend:
[1] = Inhibition of biotin-tagged KRAS G12D mutant (unknown origin) to recombinant His-tagged SOS1 (unknown origin) protein-protein interaction incubated for 120 mins by AlphaLISA method; set-up: species or system Homo sapiens
ASPC1 = assay: Cytotoxicity against human AsPC1 cells assessed as reduction in cell viability incubated for 7 days by CellTiterGlo Luminescent Cell Viability Assay; type: functional, cell-based; conditions: ASPC1, 168 h
[2] = Apparent permeability in human Caco-2 cells incubated for 180 mins by LC-MS/MS method; type: ADME, cell-based

Row | Structure (SMILES) | IC50 [1] [nM] | IC50 (ASPC1) [nM] | Papp at 3 h [2] [×10⁻⁶ cm/s]
1 | CC[C@H](C)[C@@H]1NC(=O)[C@H](C)N(C)C(=O)C[C@@H](C(=O)N2CCCC2)NC(=O)[C@H](C(C)C)N(C)C(=O)[C@H](Cc2ccccc2)N(C)C(=O)[C@H](Cc2c[nH]c3ccccc23)NC(=O)[C@H](Cc2cccc(Cl)c2)NC(=O)CN(C)C(=O)[C@H](Cc2ccc(Cl)cc2)N(C)C(=O)CN(C)C(=O)CN(C)C1=O ([NMeA]I[Sar][Sar][NMePhe(4-Cl)][Sar][Phe(3-Cl)]W[NMeF][NMeV]D-Pyrrolidide; lactam N-11) | 54 | – | –
2 | CC[C@H](C)[C@@H]1NC(=O)[C@H](CC2CCCC2)N(C)C(=O)C[C@@H](C(=O)N2CCCCC2)N(C)C(=O)[C@H](C(C)C)N(C)C(=O)C2(CCCC2)NC(=O)[C@@H]2CCCN2C(=O)[C@H](CCc2ccc(C(F)(F)F)c(Cl)c2)NC(=O)CN(C)C(=O)[C@H](CC2CCCCC2)N(C)C(=O)CN(C)C(=O)CN(C)C1=O ([NMeAla(cPent)]I[Sar][Sar][NMeCha][Sar][hPhe(3-Cl-4-CF3)]P[Ac5c][NMeV][NMeD]-Piperidide; lactam N-11) | 13 | 730 | 0.41
3 | CC[C@H](C)[C@@H]1NC(=O)[C@H](CC2CC2)N(C)C(=O)C[C@@H](C(=O)N2CCCCC2)N(C)C(=O)[C@H](C(C)C)N(C)C(=O)C2(CCCC2)NC(=O)[C@@H]2CCCN2C(=O)[C@H](CCc2ccc(C(F)(F)F)c(Cl)c2)NC(=O)CN(C)C(=O)[C@H](CC2CCCCC2)N(C)C(=O)CN(C)C(=O)CN(C)C1=O ([NMeAla(cPr)]I[Sar][Sar][NMeCha][Sar][hPhe(3-Cl-4-CF3)]P[Ac5c][NMeV][NMeD]-Piperidide; lactam N-11) | 10 | 650 | 0.34
4 | CC[C@H](C)[C@@H]1NC(=O)[C@H](CC2CCC2)N(C)C(=O)C[C@@H](C(=O)N2CCCCC2)N(C)C(=O)[C@H](C(C)C)N(C)C(=O)C2(CCCC2)NC(=O)[C@@H]2CCCN2C(=O)[C@H](CCc2ccc(C(F)(F)F)c(Cl)c2)NC(=O)CN(C)C(=O)[C@H](CC2CCCCC2)N(C)C(=O)CN(C)C(=O)CN(C)C1=O ([NMeCba]I[Sar][Sar][NMeCha][Sar][hPhe(3-Cl-4-CF3)]P[Ac5c][NMeV][NMeD]-Piperidide; lactam N-11) | 10 | 790 | 0.41
5 | CC[C@H](C)[C@@H]1NC(=O)[C@H](CC2CCCCC2)N(C)C(=O)C[C@@H](C(=O)N2CCCCC2)N(C)C(=O)[C@H](C(C)C)N(C)C(=O)C2(CCCC2)NC(=O)[C@@H]2CCCN2C(=O)[C@H](CCc2ccc(C(F)(F)F)c(Cl)c2)NC(=O)CN(C)C(=O)[C@H](CC2CCCCC2)N(C)C(=O)CN(C)C(=O)CN(C)C1=O ([NMeCha]I[Sar][Sar][NMeCha][Sar][hPhe(3-Cl-4-CF3)]P[Ac5c][NMeV][NMeD]-Piperidide; lactam N-11) | 25 | 950 | 0.33
6 | CC[C@H](C)[C@@H]1NC(=O)[C@H](C2CCCCC2)N(C)C(=O)C[C@@H](C(=O)N2CCCCC2)N(C)C(=O)[C@H](C(C)C)N(C)C(=O)C2(CCCC2)NC(=O)[C@@H]2CCCN2C(=O)[C@H](CCc2ccc(C(F)(F)F)c(Cl)c2)NC(=O)CN(C)C(=O)[C@H](CC2CCCCC2)N(C)C(=O)CN(C)C(=O)CN(C)C1=O ([NMeChg]I[Sar][Sar][NMeCha][Sar][hPhe(3-Cl-4-CF3)]P[Ac5c][NMeV][NMeD]-Piperidide; lactam N-11) | 7.8 | 650 | 0.37
7 | CC[C@H](C)[C@@H]1NC(=O)[C@H](C2CCC2)N(C)C(=O)C[C@@H](C(=O)N2CCCCC2)N(C)C(=O)[C@H](C(C)C)N(C)C(=O)C2(CCCC2)NC(=O)[C@@H]2CCCN2C(=O)[C@H](CCc2ccc(C(F)(F)F)c(Cl)c2)NC(=O)CN(C)C(=O)[C@H](CC2CCCCC2)N(C)C(=O)CN(C)C(=O)CN(C)C1=O ([NMeGly(cBu)]I[Sar][Sar][NMeCha][Sar][hPhe(3-Cl-4-CF3)]P[Ac5c][NMeV][NMeD]-Piperidide; lactam N-11) | 2.8 | 130 | 0.91
8 | CC[C@H](C)[C@@H]1NC(=O)[C@H](C2CCCC2)N(C)C(=O)C[C@@H](C(=O)N2CCCCC2)N(C)C(=O)[C@H](C(C)C)N(C)C(=O)C2(CCCC2)NC(=O)[C@@H]2CCCN2C(=O)[C@H](CCc2ccc(C(F)(F)F)c(Cl)c2)NC(=O)CN(C)C(=O)[C@H](CC2CCCCC2)N(C)C(=O)CN(C)C(=O)CN(C)C1=O ([NMeGly(cPent)]I[Sar][Sar][NMeCha][Sar][hPhe(3-Cl-4-CF3)]P[Ac5c][NMeV][NMeD]-Piperidide; lactam N-11) | 4.3 | 210 | 0.75
9 | CC[C@H](C)[C@@H]1NC(=O)[C@H](C2CC2)N(C)C(=O)C[C@@H](C(=O)N2CCCCC2)N(C)C(=O)[C@H](C(C)C)N(C)C(=O)C2(CCCC2)NC(=O)[C@@H]2CCCN2C(=O)[C@H](CCc2ccc(C(F)(F)F)c(Cl)c2)NC(=O)CN(C)C(=O)[C@H](CC2CCCCC2)N(C)C(=O)CN(C)C(=O)CN(C)C1=O ([NMeGly(cPr)]I[Sar][Sar][NMeCha][Sar][hPhe(3-Cl-4-CF3)]P[Ac5c][NMeV][NMeD]-Piperidide; lactam N-11) | 8.5 | 720 | 0.46
10 | CC[C@H](C)[C@@H]1NC(=O)[C@H](CC(C)C)N(C)C(=O)C[C@@H](C(=O)N2CCCCC2)N(C)C(=O)[C@H](CC2CCCCC2)N(C)C(=O)C2(CCCC2)NC(=O)[C@@H]2CCCN2C(=O)[C@H](CCc2ccc(C(F)(F)F)c(Cl)c2)NC(=O)CN(C)C(=O)[C@H](CC2CCCCC2)N(C)C(=O)[C@@H]2CCN2C(=O)[C@H](C)N(C)C1=O ([NMeL]I[NMeA][Aze][NMeCha][Sar][hPhe(3-Cl-4-CF3)]P[Ac5c][NMeCha][NMeD]-Piperidide; lactam N-11) | 45 | 30000 | –
11 | CC[C@H](C)[C@@H]1NC(=O)[C@H](CC(C)C)N(C)C(=O)C[C@@H](C(=O)N2CCCCC2)N(C)C(=O)[C@H](CC(C)C)N(C)C(=O)C2(CCCC2)NC(=O)[C@@H]2CCCN2C(=O)[C@H](CCc2ccc(C(F)(F)F)c(Cl)c2)NC(=O)CN(C)C(=O)[C@H](CC2CCCCC2)N(C)C(=O)[C@@H]2CCN2C(=O)[C@H](C)N(C)C1=O ([NMeL]I[NMeA][Aze][NMeCha][Sar][hPhe(3-Cl-4-CF3)]P[Ac5c][NMeL][NMeD]-Piperidide; lactam N-11) | 3.9 | 240 | –
12 | CCC[C@H]1C(=O)N(C)[C@H](C(=O)N2CCCCC2)CC(=O)N(C)[C@@H](CC(C)C)C(=O)N[C@@H]([C@@H](C)CC)C(=O)N(C)[C@@H](C)C(=O)N2CC[C@H]2C(=O)N(C)[C@@H](CC2CCCCC2)C(=O)N(C)CC(=O)N[C@@H](CCc2ccc(C(F)(F)F)c(Cl)c2)C(=O)N2CCC[C@H]2C(=O)NC2(CCCC2)C(=O)N1C ([NMeL]I[NMeA][Aze][NMeCha][Sar][hPhe(3-Cl-4-CF3)]P[Ac5c][NMeNva][NMeD]-Piperidide; lactam N-11) | 5.7 | 310 | –
13 | CC[C@H](C)[C@@H]1NC(=O)[C@H](C)N(C)C(=O)C[C@@H](C(=O)n2cccc2)NC(=O)[C@H](C)N(C)C(=O)[C@H](Cc2ccccc2)N(C)C(=O)[C@H](Cc2ccccc2)NC(=O)[C@H](Cc2cccc(Cl)c2)NC(=O)CN(C)C(=O)[C@H](Cc2ccc(Cl)cc2)N(C)C(=O)CN(C)C(=O)CN(C)C1=O (cyclo(F[NMeF][NMeA][X1][NMeA]I[Sar][Sar][NMePhe(4-Cl)][Sar][Phe(3-Cl)])) | > 5000 | – | 0.1
14 | CC[C@H](C)[C@@H]1NC(=O)[C@H](C)N(C)C(=O)C[C@@H](C(=O)n2cccc2)NC(=O)[C@H](CC2CCCCC2)N(C)C(=O)[C@H](Cc2ccccc2)N(C)C(=O)[C@H](Cc2ccccc2)NC(=O)[C@H](Cc2cccc(Cl)c2)NC(=O)CN(C)C(=O)[C@H](Cc2ccc(Cl)cc2)N(C)C(=O)CN(C)C(=O)CN(C)C1=O (cyclo(F[NMeF][NMeCha][X1][NMeA]I[Sar][Sar][NMePhe(4-Cl)][Sar][Phe(3-Cl)])) | 670 | – | 0.07
15 | CC[C@H](C)[C@@H]1NC(=O)[C@H](C)N(C)C(=O)C[C@@H](C(=O)n2cccc2)N(C)C(=O)[C@H]([C@@H](C)CC)N(C)C(=O)[C@H](Cc2ccccc2)N(C)C(=O)[C@H](Cc2ccccc2)NC(=O)[C@H](Cc2cccc(Cl)c2)NC(=O)CN(C)C(=O)[C@H](Cc2ccc(Cl)cc2)N(C)C(=O)CN(C)C(=O)CN(C)C1=O (cyclo(F[NMeF][NMeI][X2][NMeA]I[Sar][Sar][NMePhe(4-Cl)][Sar][Phe(3-Cl)])) | 87 | – | 0.09
16 | CCCC[C@H]1C(=O)N(C)[C@H](C(=O)n2cccc2)CC(=O)N(C)[C@@H](C)C(=O)N[C@@H]([C@@H](C)CC)C(=O)N(C)CC(=O)N(C)CC(=O)N(C)[C@@H](Cc2ccc(Cl)cc2)C(=O)N(C)CC(=O)N[C@@H](Cc2cccc(Cl)c2)C(=O)N[C@@H](Cc2ccccc2)C(=O)N(C)[C@@H](Cc2ccccc2)C(=O)N1C (cyclo(F[NMeF][NMeNle][X2][NMeA]I[Sar][Sar][NMePhe(4-Cl)][Sar][Phe(3-Cl)])) | 270 | – | 0.09
17 | CCC[C@H]1C(=O)N(C)[C@H](C(=O)n2cccc2)CC(=O)N(C)[C@@H](C)C(=O)N[C@@H]([C@@H](C)CC)C(=O)N(C)CC(=O)N(C)CC(=O)N(C)[C@@H](Cc2ccc(Cl)cc2)C(=O)N(C)CC(=O)N[C@@H](Cc2cccc(Cl)c2)C(=O)N[C@@H](Cc2ccccc2)C(=O)N(C)[C@@H](Cc2ccccc2)C(=O)N1C (cyclo(F[NMeF][NMeNva][X2][NMeA]I[Sar][Sar][NMePhe(4-Cl)][Sar][Phe(3-Cl)])) | 97 | – | 0.14
18 | CC[C@H](C)[C@@H]1NC(=O)[C@H](C)N(C)C(=O)C[C@@H](C(=O)n2cccc2)N(C)C(=O)[C@H](C(C)C)N(C)C(=O)[C@H](Cc2ccccc2)N(C)C(=O)[C@H](Cc2ccccc2)NC(=O)[C@H](Cc2cccc(Cl)c2)NC(=O)CN(C)C(=O)[C@H](Cc2ccc(Cl)cc2)N(C)C(=O)CN(C)C(=O)CN(C)C1=O (cyclo(F[NMeF][NMeV][X2][NMeA]I[Sar][Sar][NMePhe(4-Cl)][Sar][Phe(3-Cl)])) | 70 | – | 0.11

— ChEMBL document CHEMBL5550184, “Structure-activity relationships of middle-size cyclic peptides, KRAS inhibitors derived from an mRNA display” (Bioorg Med Chem, 2024)
